Measurements reported in US20230310352A1, “NOVEL COMPOSITIONS AND METHODS FOR THE TREATMENT OF LUNG FIBROSIS” (LAURENT PHARMACEUTICALS INC., priority 2020, published 2023).

Tests used:
[1] = tested on: bleomycin-induced lung fibrosis; assay: Intratracheal bleomycin mouse model of pulmonary fibrosis (28-day model); assay type: in vivo, C57BL/6N mice; details: Day 28; oral once daily Day 7 to Day 28; fenretinide 10 mg/kg (as LAU-7b SDI), pirfenidone 100 mg/kg
Excerpt: Oral administration of a solid, amorphous dispersion formulation of fenretinide (LAU-7b SDI) was provided as a treatment for reduction of pulmonary fibrosis, in a mouse model of lung fibrosis induced via a single intratracheal administration of bleomycin, for 21 days. The LAU-7b SDI formulation was obtained by spray drying and contains fenretinide in amorphous form in a solid dispersion comprising a matrix polymer, based on the following formula: 40% fenretinide, 59.6% povidone (KOLLIDON® 30), 0.24% butylated hydroxyanisole (BHA) and 0.16% butylated hydroxytoluene (BHT).
Male C57BL/6N mice from Charles River Laboratories, 10-12 weeks of age, weighing around 20-25 g, at the time of their enrolment, received 50 μL of bleomycin sulfate (2.0 mg/kg) by a single intratracheal instillation on Day 1 of the study to induce lung fibrosis. The sham group received an equivalent volume of 0.9% saline. On Day 7 postbleomycin instillation, the animals were randomized in groups of animals based on their body weight loss and enhanced pause airway resistance estimate (PenH value), while the sham group had 6 mice. Oral dosing by gavage (10 mL/kg) with the vehicle (sham and BLM control groups), the test articles (fenretinide 10 mg/kg), and the reference compound (pirfenidone 100 mg/kg) were administered once daily starting from Day 7 to Day 28. Two hours following the last dose on Day 28, all mice were sacrificed, the lungs of each mouse harvested, flushed with 0.9% NaCl and inflated with 10% neutral buffered formalin solution. After embedding and mounting of the lung tissue (transversal slices of 5 μm thickness), the histology slides were stained with hematoxylin/eosin for the Ashcroft score evaluation by a treatment-blinded pathologist and with Sirius red staining for automated fibrosis quantification (Biocelvia, France).
The key endpoints evaluated in this study were Ashcroft score, pulmonary foci and collagen content obtained by histological assessment of the lung tissue at the end of the study. Statistical analysis was made on normally distributed data by one-way ANOVA followed by multiple comparisons (Fisher's LSD post hoc test) to assess the difference between the groups, using Graph Pad Prism Software version 8.0 (San Diego, CA, USA). Differences were considered statistically significant when P values were p<0.05 (*), or p<0.01 (**) or p<0.001 (***).
Ashcroft scale for the evaluation of bleomycin-induced lung fibrosis is the analysis of stained histological samples by visual assessment. The Ashcroft score was assessed in lung tissue collected on Day 28 by treatment-blinded pathologist on H&E stained lung tissue histology slides (3 cross sections/animal) and using the modified Ashcroft scale. Briefly, each lung section was scanned at a magnification of x100 (H&E staining), read by a blinded examiner, and graded from 0 (normal lung) to 8 (total fibrotic obliteration of the field). Criteria for grading lung fibrosis in Ashcroft scale are as follows: Grade 0=normal lung; Grade 1=minimal fibrous thickening of alveolar or bronchiolar walls; Grade 3=moderate thickening of walls without obvious damage to lung architecture; Grade 5=increased fibrosis with definitive damage to lung structure and formation of fibrous bands or small fibrous masses; Grade 7=severe distortion of structure and large fibrous area; Grade 8=total fibrous obliteration of lung fields. The mean value of the grades obtained for each of the three sections was used as the Ashcroft score. Ashcroft score, using the modified scale, is a reliable and reproducible method of visual quantification of bleomycin induced lung fibrosis in H&E stained histological lung sections based on description of the general morphology of alveolar septa and lung structure. […]

[2] = tested on: bleomycin-induced lung fibrosis; assay: Intratracheal bleomycin mouse model of pulmonary fibrosis (21-day model); assay type: in vivo, C57BL/6N mice; details: Day 21; oral once daily for 14 days; fenretinide 10 mg/kg (as LAU-7b SDI), pirfenidone 100 mg/kg
Description: Oral administration of a solid amorphous dispersion formulation of fenretinide (LAU-7b SDI) was evaluated in treating and/or reducing pulmonary fibrosis in mouse model of lung fibrosis induced via a single intratracheal administration of bleomycin followed by vehicle, fenretinide (LAU-7b SDI) or pirfenidone oral treatment for 21 days. The LAU-7b SDI formulation was obtained by spray drying and contains fenretinide in amorphous form in a solid dispersion comprising a matrix polymer, based on the following formula: 40% fenretinide, 59.6% povidone (KOLLIDON® 30), 0.24% butylated hydroxyanisole (BHA) and 0.16% butylated hydroxytoluene (BHT).
Male C57BL/6N mice from Charles River Laboratories, 10-12 weeks of age, weighing around 20-25 g, at the time of their enrolment, received 50 μL of bleomycin sulfate (2.0 mg/kg) by a single intratracheal instillation on Day 1 of the study. The Sham group received an equivalent volume of 0.9% saline. On Day 7 post-bleomycin instillation the animals were randomized in groups of 8 animals based on their body weight loss and Penh value. Oral dosing by gavage (10 mL/kg) with the vehicle (sham and BLM Control groups), LAU-7b SDI (fenretinide at 5 mg/kg and 10 mg/kg dose), and the reference compound (pirfenidone 100 mg/kg) were initiated once daily starting from Day 7 to Day 21. Two hours following the last dose on Day 21 all the mice were sacrificed, the lungs of each mouse were harvested, flushed with 0.9% NaCl and inflated with 10% neutral buffered formalin solution. After embedding and mounting of the lung tissue (transversal slices of 5 μm thickness), the histology slides were stained with hematoxylin/eosin for the Ashcroft score evaluation by a treatment-blinded pathologist, and with Sirius red staining for automated fibrosis quantification (Biocellvia, France).
As in Example 4, the key endpoints evaluated in this study were the Ashcroft score, pulmonary foci and collagen content obtained by histological assessment of the lung tissue at the end of the study. Statistical analysis was made on normally distributed data by one-way ANOVA followed by multiple comparisons (Fisher's LSD post hoc test) to assess the difference between the groups, using Graph Pad Prism Software version 8.0 (San Diego, CA, USA). Differences were considered statistically significant when P values were p<0.05 (*), or p<0.01 (**) or p<0.001 (***). The Ashcroft score was assessed in the lung tissue by treatment-blinded pathologist on the H&E stained histology slides (2 cross sections/animal) and using the modified Ashcroft scale. Briefly, each lung section was scanned at a magnification of ×100 (H&E staining), and graded from 0 (normal lung) to 8 (total fibrotic obliteration of the field). The mean value of the grades obtained for each of the two sections was used as the Ashcroft score.
Pulmonary foci (fibrotic tissue) and lung collagen content were quantified in the Sirius red stained lung tissue histology sections by high resolution, automated digital image analysis (Biocellvia, France) on Day 21 after lung fibrosis induction by bleomycin (BLM) instillation and following a 14-day oral gavage treatment with LAU-7b SDI (fenretinide, two doses), pirfenidone (reference drug) or vehicle only. Full field analysis of 2 lung sections per animal was conducted and the results were expressed as a mean percentage of total surface. This test is considered highly reliable, offering reproducible and observer-independent assessment of quantitative analysis of fibrosis.

SMILES: Cc1ccc(=O)n(-c2ccccc2)c1 [pirfenidone]
- Ashcroft score vs BLM control [1]: did not induce significant improvement
- percentage of collagen content in lung tissue, automated Sirius red analysis, vs BLM control [1]: significantly reduced
- percentage of pulmonary foci (fibrotic tissue), automated Sirius red analysis, vs BLM control [1]: nonsignificant effect
- Ashcroft score vs BLM control [2]: reduced significantly
- percentage of collagen content, automated Sirius red analysis, vs BLM control [2]: did not induce statistically significant reduction
- percentage of pulmonary foci, automated Sirius red analysis, vs BLM control [2]: did not induce statistically significant reduction
